Key:
[1] = test system: human monocyte-derived DCs; experiment: Cytokine induction of human monocyte-derived dendritic cells (Luminex); assay type: cell-based; details: 10 μM, 18 h
Method: (A) Upregulation of antigen uptake by 1Z105. BMDCs prepared from C57BL/6 mice were incubated with 10 μM 1Z105 or MPLA overnight. Antigen, Alexa Fluor 488-conjugated ovalbumin (OVA-488), was added to the culture for the last 30 min of incubation. The cells were washed and stained for CD11c. OVA-associated dendritic cells in the CD11c^hi population were evaluated by flow cytometry. Cells incubated at 4° C. served as a negative control. (B and C) Enhancement of expression of costimulatory molecules by 1Z105.WT (B) or Tlr4^−/− (C) BMDCs were incubated with 1Z105 (10 or 2 μM) or MPLA (0.04 μg/ml) overnight, and expression of CD40 and CD86 was assessed by flow cytometric assay. (D) 1Z105 promotes antigen cross-presentation. […] OT-1 T-cell proliferation was monitored by flow-cytometric assay. […] Cytokine release of IL-1β, IL-6, IL-8, IL-12p70, and TNF-α was determined by Luminex bead assay. […]
Human primary dendritic cells (DCs) were generated. […] The supernatants were stored at −20° C. for later quantification of released cytokines. Quantification of IL-1β, IL-6, IL-8, IL-12p70, and tumor necrosis factor alpha (TNF-α) released in supernatants was performed using the Milliplex Multiplex Assays (Luminex; Millipore, Billerica, Mass.) according to the manufacturer's instructions. Data were analyzed using the Milliplex Analyst software (Millipore).

OVA = OVA immunization: splenocyte IFN-γ ELISA and ELISpot; assay type: in vivo, C57BL/6 mice
Method: AddaVax and vehicle were used as controls. The sera were collected on day 35, and the serum IgG1 (A) and IgG2c (B) levels were tested. (C) Splenocytes were incubated with OVA (100 μg/ml) for 3 days, and IFN-γ levels in the culture supernatants were determined by ELISA. Data were pooled from three experiments showing similar trends. (D and E) Myd88^−/−, Tri^flps/lps, or wild-type mice (n=8/group) were i.m. immunized with ovalbumin mixed with the indicated adjuvant or vehicle in a 50-μl volume on days 0 and 14. On day 35, splenocytes were incubated with OVA MHC class I peptides (OVA257-264) (D) or class II peptides (OVA323-339) (E) overnight, and IFN-γ-producing cells were detected by ELISpot assay. The data shown are pooled from 2 or 3 independent experiments showing similar trends. *, P 0.05 compared to no adjuvant (A to C) or the WT (D and E) by one-way ANOVA with Dunnett's post hoc testing.
Vehicle (10% DMSO in saline) and AddaVax (1:1 ratio with antigen in saline) were used as controls. Sera were collected on days 0, 7, 14, 21, 28, and 35. Mice were sacrificed on day 35, and the spleens were harvested. Approximately 2.5×10^6/ml spleen cells was dispersed into round-bottom microtiter plates in triplicate in a total volume of 200 μl complete RPMI 1640 and restimulated with either 100 μg/ml OVA or medium alone. The cultures were then incubated at 37° C., 5% CO2, and the supernatants were harvested after 72 h. The levels of gamma interferon (IFN-γ) in the culture supernatants were measured by ELISA (BD Bioscience, San Jose, Calif.) according to the manufacturer's instructions. In parallel, splenocytes were stimulated with 10 μg/ml OVA class I (OVA257-264) or class II (OVA323-339) peptide on anti-IFN-γ antibody-coated enzyme-linked immunospot (ELISpot) plates for 18 h. The results are reported as numbers of IFN-spot-forming cells (SFC) per million cells as described below.

[2] = test system: B/Florida/04/2006 (Yamagata lineage); design: species or system BALB/c mice; details: mouse, in vivo

Row | SMILES | proinflammatory cytokine release (IL-1β, IL-6, IL-8, IL-12p70, TNF-α) [1] | dependence of increased antigen-specific T cell frequencies on MyD88 and TRIF (OVA; Myd88-/- and TrifLps2/Lps2 versus wild-type mice) | frequencies of IFN-γ-releasing T cells specific for OVA class I peptide (ELISpot) (OVA; OVA257-264, day 35 splenocytes) | frequencies of IFN-γ-releasing T cells specific for OVA class II peptide (ELISpot) (OVA; OVA323-339, day 35 splenocytes) | OVA-specific IFN-γ release by T cells restimulated ex vivo (OVA; splenocytes, OVA 100 μg/ml, 3 days, ELISA) | mortality compared to the no-adjuvant group [2]
1 | Cn1c2ccccc2c2nc(SCC(=O)NC3CCCCC3)n(-c3ccccc3)c(=O)c21 [Compound 1Z105] | activated human monocyte-derived DCs, resulting in proinflammatory cytokine release |  |  |  |  | 
2 | CCCCCCCCC=CCCCCCCCC(=O)OCC(COP(=O)(O)OCCNC(=O)c1ccc(Cn2c(=O)[nH]c3c(N)nc(OCCOC)nc32)cc1)OC(=O)CCCCCCCC=CCCCCCCCC (stereo not drawn) [Compound 1V270] |  | partially dependent upon the MyD88 and TRIF pathways | increased frequencies | increased frequencies | promoted OVA-specific IFN-γ release | significantly reduced
